Reference: patent US20080221013A1, “Neurobiological compositions” (priority 2006, published 2008)
Read-outs that look alike come from different tables or passages of the source.

Key:
[1] = target: T1, alpha4beta2 nAChRs (Homo sapiens, UniProt P17787+P43681); assay: co-immunoprecipitation in transiently transfected HEK293 cells; assay type: binding; settings: IP with nAChR antibodies, Western blot
T1 construct: expressed in transfected cells; host or cells: HEK293

[2] = target: T2, alph4beta2 nAChRs (Homo sapiens, UniProt P17787+P43681); assay: voltage-clamp recordings of xenopus oocytes heterologously expressing nAChR and lynx cRNA; assay type: cell-based; settings: coexpressed with a4b2 nAChRs in oocytes, 1 mM ACh; for desensitization of ACh-evoked currents during agonist application: 20 sec; for fast time constant of desensitization / slow time constant of desensitization (plateau phase): two-exponential fit
T2 construct: expressed in transfected cells; host or cells: Xenopus oocytes injected with cRNA
Experimental: (§1) The inward currents were evoked by 20 sec periods of superfusion (horizontal calibration bar) with external saline containing 1 mM ACh. […] B and C. The differences in desensitization are shown with bar graphs. As described in (2), two exponentials equations were fitted to the desensitization currents during ACh application. Using these equations, fast (B) and slow (C) time constants were calculated and the average values of these constants for ACh responses are shown in B and C.
as §1, with “C).” for “C.”, “shown.” for “are shown in B and C.”

[3] = system: striatum; settings: drinking water from 8 months of age for 10 months
[4] = system: motor learning; settings: 200 μg/ml nicotine in 2% saccharin
[5] = system: seizure activity; settings: lynx1 null mutant mice vs wt; single injection of nicotine
[6] = system: primary cortical cultures
[7] = system: primary cortical cultures; remark: listed apart in the source
Experimental: Cultured cells were then loaded with the Ca^2+ sensitive indicator fluo-3 and fluorescence measurements were obtained (FIG. 5A). […] Acute responses to nicotine were measured using fluorescence levels in real time.

[8] = system: nAChRs; assay: whole-cell patch clamp recordings of nicotine-induced currents in medial habenula neurons in brain slices; assay type: cell-based, mouse; settings: for EC50: 250 ms nicotine pulse, 0.1 μM to 300 μM, read-out: EC50 of nicotine-induced current
[9] = system: pain sensitivity; settings: lynx1 null mutant mice vs wild-type

T2 sequence (P43681 29-627 limits assumed): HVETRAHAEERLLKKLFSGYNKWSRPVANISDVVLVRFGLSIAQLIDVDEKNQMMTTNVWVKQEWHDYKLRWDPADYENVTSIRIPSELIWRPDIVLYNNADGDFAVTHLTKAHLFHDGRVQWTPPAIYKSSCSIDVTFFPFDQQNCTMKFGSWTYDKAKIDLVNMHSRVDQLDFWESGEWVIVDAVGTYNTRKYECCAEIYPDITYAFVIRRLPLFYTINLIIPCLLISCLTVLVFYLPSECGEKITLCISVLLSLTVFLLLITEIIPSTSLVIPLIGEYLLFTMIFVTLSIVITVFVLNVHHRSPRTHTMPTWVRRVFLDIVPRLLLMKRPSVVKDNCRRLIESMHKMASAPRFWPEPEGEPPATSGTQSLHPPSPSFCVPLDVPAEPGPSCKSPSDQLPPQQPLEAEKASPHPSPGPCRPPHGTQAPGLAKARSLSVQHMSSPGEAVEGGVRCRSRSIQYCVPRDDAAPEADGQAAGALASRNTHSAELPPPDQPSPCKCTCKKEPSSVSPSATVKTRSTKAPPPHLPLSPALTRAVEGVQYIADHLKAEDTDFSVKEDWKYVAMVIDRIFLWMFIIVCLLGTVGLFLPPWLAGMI
T2 sequence (P17787 26-502): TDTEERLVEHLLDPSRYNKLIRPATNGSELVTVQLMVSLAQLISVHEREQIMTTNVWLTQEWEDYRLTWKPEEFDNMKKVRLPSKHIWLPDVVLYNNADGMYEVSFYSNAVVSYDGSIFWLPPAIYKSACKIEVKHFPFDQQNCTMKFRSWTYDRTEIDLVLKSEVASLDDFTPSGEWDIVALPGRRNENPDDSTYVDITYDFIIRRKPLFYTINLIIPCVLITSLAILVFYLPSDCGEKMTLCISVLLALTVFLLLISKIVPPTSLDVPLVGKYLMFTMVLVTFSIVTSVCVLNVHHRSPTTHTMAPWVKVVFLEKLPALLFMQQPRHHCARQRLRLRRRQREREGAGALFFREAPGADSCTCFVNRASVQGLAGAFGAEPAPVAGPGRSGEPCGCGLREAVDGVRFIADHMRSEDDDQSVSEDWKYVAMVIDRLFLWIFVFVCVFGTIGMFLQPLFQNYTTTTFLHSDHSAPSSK
T1 sequence (P43681 29-627 limits assumed): as the sequence (P43681 29-627 limits assumed) above
T1 sequence (P17787 26-502): as the sequence (P17787 26-502) above

lynx3: lynx family polypeptide with modulatory capacity on nAChRs; mouse lynx3 (SEQ ID NO:7)
association with nAChRs in co-immunoprecipitation [1]: stable associations
desensitization of ACh-evoked currents during agonist application [2]: significantly faster desensitization
fast time constant of desensitization [2]: significantly faster
slow time constant of desensitization (plateau phase) [2]: remained the same

CN1CCCC1c1cccnc1 (centres unmarked) [nicotine]
vacuolation in the striatum, nicotine solution vs saccharin ([3]; lynx1−/− mice): significant increase in vacuolation
vacuolation in the striatum, nicotine/saccharin vs saccharin ([3]; wild-type mice): no significant differences in vacuolation
rotarod performance relative to similarly treated wild-type mice ([4]; lynx1−/− mice, 2nd day of training): significant improvement in rotarod performance
rotarod performance vs saccharin-treated mice ([4]; wild-type mice, at least 6 weeks): this difference was not significant
neuroprotection against glutamate-mediated cell death ([6]; lynx1−/− neurons, nicotine pretreatment, glutamate): completely abolished
neuroprotection against glutamate-mediated cell death ([6]; wild-type neurons, 1 hour pretreatment of nicotine, 100 μM glutamate): protects wild-type neurons from cell death
acute Ca2+ response, fluorescence in real time ([7]; lynx1−/− cultures): significant increase
increase in fluorescence (steady state Ca2+ levels) ([7]; lynx1−/− cultures, 10 μm nicotine): 2 fold
acute Ca2+ response, fluorescence in real time ([7]; wild-type cultures): not
change in steady state Ca2+ levels (fluorescence) ([7]; wild-type cultures, 10 μm nicotine): did not result in a significant change
change in fluorescence in dose-response measurements ([7]; wild-type cultures, any of the concentrations tested): no change in fluorescence
antinociceptive effect of nicotine, time on a hot-plate [9]: enhanced sensitivity

CNC1(C)C2CCC(C2)C1(C)C (centres unmarked) [mecamylamine]
effect on nicotine-induced currents ([8]; nAChR antagonist, recovered during wash out): blocked

B1: lynx2: lynx family polypeptide related to lynx1; mouse lynx2 (SEQ ID NO:5) (protein, listed as Mus musculus)
chain: MWVLGIAATFCGLFWLPGLALQIQCYQCEEFQLNNDCSSPEFIVNCTVNVQDMCQKEVMEQSAGIMYRKSCASSAACLIASAGYQSFCSPGKLNSVCISCCNTPLCNGPRPKKRGSSASAIRPGLLTTLLFFHLALCLAHC
association with nAChRs in co-immunoprecipitation [1]: stable associations
desensitization of ACh-evoked currents during agonist application [2]: significantly faster desensitization
fast time constant of desensitization [2]: significantly faster
slow time constant of desensitization (plateau phase) [2]: remained the same

B2: ly6H: a lynx-related gene, a related family member, used as comparator (protein)
chain: LWCQDCTLANSSHCAPKQCQPTDTVCASVRITDPSSSRKDHSVNKMCASSCDFVKRHFFSDYLMGFINSGILKVDVDCCEKDLCN
association with nAChRs in co-immunoprecipitation [1]: not
desensitization of ACh-evoked currents during agonist application [2]: no effect on desensitization
fast time constant of desensitization [2]: unaffected
slow time constant of desensitization (plateau phase) [2]: unaffected
